Measured values from PubChem BioAssay AID179 (DTP/NCI, 2004).
pEC50, pIC50: −log10 of the molar value. The source made the active and inactive calls.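 How the source made its calls: active means compounds giving half or more protection of infected cells from virus-caused growth loss, again on retest; inactive means the rest.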

System: CEM cells HIV-1 protection, formazan growth assay
Assay: NCI AIDS Antiviral Assay
Details: for pIC50: measured here: growth of uninfected CEM cells
In short: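 Screen of anti-HIV-1 activity in human CEM cells using a formazan-based growth measurement at five drug concentrations. Hits with 50% or greater protection were repeated, and confirmation required reproducible complete protection.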

Compound	outcome	pEC50	pIC50
CC(=O)OC1C=C2c3cc4c(c(O)c3C(=O)NC2[C@H](OC(C)=O)[C@@H]1OC(C)=O)OCO4 (some centres undefined)	inactive	–	–
O=C(Cc1ccccc1)c1ccc2[nH]c(=O)oc2c1	–	< 3.70	3.99
COCn1c2ccccc2c2nc(-c3ccncc3)nc(-c3ccncc3)c21	–	< 5.40	< 5.40
COC(=O)c1cc(C(=CCCN=[N+]=[N-])c2cc(Cl)c(OC)c(C(=O)OC)c2)cc(Cl)c1OC	–	4.48	4.46
O=c1cc(-c2c(O)cc(O)cc2O)oc2cc(O)cc(O)c12	–	< 3.70	< 3.70
CCOC(=O)c1c(N=P(c2ccccc2)(c2ccccc2)c2ccccc2)nnc(-c2ccccc2)c1-c1ccccc1	–	< 4.00	< 4.00
CC(=O)Nc1ccc(Sc2nnc(NC(C)=O)s2)cc1	–	< 4.49	< 4.49
COC(=O)c1ccccc1CC1Cc2c(C)ccc(C)c2C1=O (centres undefined)	–	< 3.70	4.46
COc1cc2c(c(OC)c1OC)-c1ccc(OC)c(=O)cc1C(NC(=O)c1ccc(N=[N+]=[N-])cc1)CC2 (centres undefined)	–	< 3.70	5.23
COC(=O)C12C3C4C5C3(C#N)C1C5(C(=O)OC)C42C(=O)N(C(C)C)C(C)C (centres undefined)	–	< 4.01	< 4.01
CCc1cccc(C(C)C)c1NC(=O)C(=O)CC(=O)c1c(C)n([O-])c2ccccc2[n+]1=O	–	< 5.48	< 5.48
CCOc1ccccc1N1CSc2nnc(-c3ccccc3)n2C1	–	< 3.83	4.08
Cn1c2ccccc2[n+]2c(N)scc12	–	< 3.70	4.40
CCCCCCCCCCCCNC1=C(Cl)C(=O)C(=O)c2cccnc21	–	4.27	3.76
CC(=O)OCCc1cccnc1/C=N/O	–	< 2.92	3.69
O=C(Nc1ccn(CCOC(=O)c2ccccc2)c(=O)n1)c1ccccc1	–	< 3.73	< 3.73
CCCc1ccc(N=Cc2cc(OC)c(OC)c(OC)c2)cc1	–	< 4.50	< 4.50
COc1cc(C)c(O)c(C(=O)O)c1	inactive	–	–
Cc1cc2ccccc2oc(=O)/c1=N\Nc1ccccc1	–	< 3.70	4.46
Cc1cc(C)c2c(O)c(S(=O)(=O)c3ccc(Cl)cc3)c(=O)oc2c1	–	< 3.70	4.11
O=C(Cc1nc2ccc([N+](=O)[O-])cc2[nH]c1=O)C(=O)Nc1cc(Cl)c(Cl)cc1Cl	–	< 4.53	4.95
Cc1cc2c(cc1C)C(=O)C(=O)N2	–	< 3.83	< 3.83

Compound	outcome	pEC50	pIC50
O=C(NCCCCCCNC(=O)n1cc(F)c(=O)[nH]c1=O)NC1C(O)OC(CO)C(O)C1O (centres undefined)	inactive	–	–
CC(=N\N=C\c1ccccn1)/C(C)=N/N=C(C)/C(C)=N/N=C(C)/C(C)=N/N=C/c1ccccn1	inactive	–	–
O=c1n(N=S(=O)(c2ccccc2)c2ccccc2)c(=O)n2n1C1C=CC2CC1	–	< 3.70	< 3.70
O=P1(Oc2ccccc2)NCc2ncccc2O1 (centres undefined)	–	< 3.70	< 3.70
O=C1c2ccccc2C(=O)c2c(/C=C\N3CCCCC3)ccnc21	–	< 5.07	< 5.07
Clc1ccc(-c2cc3nc4ccccc4nc3o2)cc1	–	< 4.00	< 4.00
CCOC(=O)C(C(=S)SC)c1nn2c(=O)cc(C)nc2s1 (centres undefined)	–	< 3.70	4.72
CNC(=S)SSSC(=S)NC	inactive	–	–
O=[N+]([O-])c1cc(-c2ccccc2)c([O][Sn]([c]2ccccc2)([c]2ccccc2)[c]2ccccc2)c([N+](=O)[O-])c1	–	< 3.70	5.42
O=C(c1c(F)c(F)c(F)c(F)c1F)n1c(=O)[nH]c2ccccc21	–	< 3.70	4.97
CC(=O)OC1(C#N)CC2OC1C1NC21 (centres undefined)	–	< 3.17	< 3.17
CC(=O)Nc1c(S(=O)(=O)c2ccccc2)c(C)c(C)n1CCN(C)C	–	< 3.70	< 3.70
CN1N=CSC12C(=O)N(c1ccc(Cl)cc1)C(=O)N2c1ccc(Cl)cc1 (centres undefined)	inactive	–	–
CCOC(=O)c1c(-c2ccc(OC)cc2)c(C#N)c(=S)n(C2OC(COC(C)=O)C(OC(C)=O)C(OC(C)=O)C2OC(C)=O)c1-c1ccccc1 (centres undefined)	–	< 3.70	4.59
Cc1oc(C)c2c1C(=O)N(C)C2=O	–	< 4.00	< 4.00
CCCC1C(C#N)(C#N)C1(C#N)C#N	–	< 3.70	5.57
COC(C)(C)C1(O)CC[C@@H](C)CC1=O (some centres undefined)	–	< 4.00	< 4.00
CCCN=C(N)NC#N	–	< 3.15	< 3.15
CC(=O)N1C(Nc2cnc3ccccc3c2)CCN1c1ccccc1 (centres undefined)	–	< 3.70	4.75
COC(=O)c1cc(CC(C)C)c2c(c1)[nH]c1ccccc12	–	< 4.45	< 4.45
CCNCCN.[O-][Cl+3]([O-])([O-])[O-].[Pd+2].c1ccc(-c2ccccn2)nc1	–	< 3.70	4.51
CSc1nc2c3ccccc3ccn2c1C(=O)N/N=C/c1ccccc1	–	< 4.00	< 4.00

Compound	outcome	pEC50	pIC50
CCCCCCCCOC1N(C2CC(N=[N+]=[N-])C(CO)O2)C(=O)NC(=O)[C@]1(C)Br (some centres undefined)	–	6.37	4.90
O=C(NCCN(CCNC(=O)c1cccc(O)c1O)CCNC(=O)c1cccc(O)c1O)c1cccc(O)c1O	–	< 3.70	5.47
O=C(c1ccccc1)C1CSS(=O)(=O)C1c1ccccc1 (centres undefined)	–	4.56	4.04
O=C1CN(/C=C(/c2ccc(Cl)cc2)S(=O)(=O)Cc2ccc(Cl)cc2)C(=S)N1	–	< 3.70	< 3.70
CC(C)(C)C1COP(=S)(C(C)(C)C)OC1 (centres undefined)	–	< 4.84	< 4.84
Cn1cc(C2NC(=O)c3ccccc3N2)c2ccccc21 (centres undefined)	–	< 3.70	6.93
CC(CN(C)C)OC(=O)c1cc2ccccc2n1-c1ccccc1 (centres undefined)	–	< 3.70	4.04
C=Cc1c2[n-]c(c1C)/C=c1\[n-]/c(c(C)c1C=C)=C\c1[n-]c(c(CCC(=O)O)c1C)/C=c1\[n-]/c(c(C)c1CCC(=O)O)=C\2.[Co]	–	< 4.13	< 4.13
CCN(CC)CCO/N=C1\CC[C@H]2[C@@H]3CC=C4C[C@@H](O)CC[C@]4(C)[C@H]3CC[C@]12C	–	< 3.70	4.81
O=C(O)[C@@H]1CSC(c2cccc(F)c2)N1 (some centres undefined)	–	< 3.70	< 3.70
C/C(=C\CNc1ncnc2c1ncn2CCC(=O)OC(C)(C)C)CO	–	< 3.70	< 3.70
O=C(NC1CCC[C@H]1OC(=O)c1ccccc1)c1ccccc1 (some centres undefined)	inactive	–	–
O=C(OCC1CC(C2(O)CCCCC2)C(=O)O1)c1ccccc1 (centres undefined)	–	< 3.70	< 3.70
COC(=O)c1c(C)cccc1/C=C1\Cc2cc(C)cc(C)c2C1=O	–	< 3.70	3.82
NC(N)=N/N=C\c1c(-c2ccccc2)nc2sccn12	–	< 3.70	4.92
O=C(Nc1c(C(=O)NC2CCCCC2)[nH]c(=O)[nH]c1=O)c1ccc(Cl)cc1	inactive	–	–
COC(=O)C1=C(O)C(C(=O)OC)C2CC(=O)CC1C2(C)C (centres undefined)	–	< 3.70	< 3.70
COc1cc(/C=C2\Sc3scc(-c4cccc([N+](=O)[O-])c4)[n+]3C2=O)cc(OC)c1OC	–	< 3.70	5.01
COc1c(Cl)cc(S(=O)O)cc1Cl	inactive	–	–
Cc1cc(C)n(-c2nc3ccccc3c(=O)n2-c2ccccc2)n1	–	< 3.70	< 3.70
